We go through one molecule from article PMC8395767, “Worsening of the Toxic Effects of (±)Cis-4,4′-DMAR Following Its Co-Administration with (±)Trans-4,4′-DMAR: Neuro-Behavioural, Physiological, Immunohistochemical and Metabolic Studies in Mice” (International Journal of Molecular Sciences, 2021).

The structures appear in SMILES notation. Where “and” joins values, the source holds several entries; their conditions need not be identical. Equal entries are not always repeated. Marks after values point to notes of the source that are not given here.

Data set [1] concerns mice. The data set is described as follows: Sweating and salivation (observation, present or not). In kind it is in vivo. Conditions: n=6 mice. Here is the method:
(§1) The effects of (±)cis-4,4′-DMAR, (±)trans-4,4′-DMAR and their co-administration were investigated by a protocol widely used in studies of “safety pharmacology” for the preclinical characterization of new molecules in rodents. This protocol includes a series of observational behavioural tests carried out in a consecutive manner that monitor the animal responses up to 5 h after compound injections. In the present study, we reported the observation of physiological (sweating, salivation, core temperature) and neuro-behavioural (detection of psychomotor agitation, spontaneous and stimulated aggressiveness, convulsions) changes occurring in mice after injection of (±)cis-4,4′-DMAR, (±)trans-4,4′-DMAR and their co-administration. Before pharmacological treatment the mouse was placed on a square plate (30 cm× 30 cm) raised from the ground (20 cm) and left free to move on the plate for 10 min (habituation period). The animal was then injected with the vehicle, substances alone ((±)cis-4,4′-DMAR or (±)trans-4,4′-DMAR) or in cis + trans co-administration and placed on the plate. From this moment, the recording time of the physiological and neuro-behavioural responses started, and these were detected in 5-min sessions.
(§2) After the first 5 min, the animal was removed from the plate; the body core temperature was then measured, and the aggression tests were performed. The 5-min observation period was repeated at 15–30–60–90–120–180–240–300. Psychomotor agitation in the mouse was not simply related to an increase in spontaneous locomotion itself, but by an “unusual hyperactivity” which was characterised by rapid and sudden horizontal displacements in all directions, sustained turning behaviour, involuntary falls from the high plate during the evaluation of the tests, stereotyped movements and rearing activity. Mouse sweating and salivation were reported only if present or not. The core temperature was determined using a probe (1 mm diameter) that was gently inserted after lubrication with liquid Vaseline into the rectum of the mouse (to about 2 cm) and left in position until the temperature stabilised (about 10 s). The probe was connected to a digital thermometer. Spontaneous aggressive response was measured based on the number of times a mouse bit a grey cloth put in front of its snout. During the test, each mouse was free to move within the cage. In the case of stimulated aggressiveness, each mouse was manually restrained and held in a supine position following which an object was brought near the mouth. For both spontaneous and stimulated aggressive behaviour tests, a grey cloth was placed in front of the nose of each mouse 10 consecutive times (score 0/10 not aggressive, score 10/10 very aggressive). Convulsions were defined as a loss of righting reflexes for at least 5 s, combined with the presence of body tremors and clonic or tonic limb movements. Deaths caused by 4-4’-DMAR injection occurring during the observation period (5 h) were also reported as frequency (%) and time of death (min). Experiments were conducted inside the LARP (Centralised Preclinical Research Laboratory, University of Ferrara, Ferrara, Italy) in a thermo-stated (temperature 20–22 °C, humidity about 45–55%) and light controlled (about 150 lux) room, in which there was a background noise of about 40 ± 4 dB. The experiments, conducted in blind by trained observers working together in pairs, were videotaped and eventually analysed off-line by a different trained operator. The experiments were performed between 8:30 a.m. and 2:00 p.m.
(§3) Sweating and salivation were expressed as frequency (e.g., % of animals that developed symptoms); psychomotor agitation was expressed as frequency (% of animals) and duration (total time in mins). Core temperature values were expressed as the difference between control temperature (before injection) and temperature following drug administration (Δ°C). […]

The test system of data set [2] is mice. The data set is described as follows: Convulsions (observation). It counts as in vivo. The settings on record: n=6 mice. As to the method:
as §1, §2, §3

[3] abbreviates: 30 mg/kg i.p., listed as (±)cis-4,4′-DMAR.
The mark [4] stands for this setting: 60 mg/kg i.p., listed as (±)cis-4,4′-DMAR.

With `Cc1ccc(C2OC(N)=NC2C)cc1` (stereo not drawn) [cis-4,4’-DMAR, 4-methyl-5-(4-methylphenyl)-4,5-dihydrooxazol-2-amine], the entries for the “Salivation Frequency % (n° of mice)” value in the data set on mice [1] (30 mg/kg i.p.), with mice [1] (setting [3]) and with mice [1] (60 mg/kg i.p.) were 100% (6), “All animals” and 50% (3), respectively. Further, the “Sweating Frequency % (n° of mice)” value is 100% (6) in the data set with mice [1] (30 mg/kg i.p.), “All animals” in the data set on mice [1] (setting [3]), 100% (6) in the data set on mice [1] (60 mg/kg i.p.) and 50% in the data set on mice [1] (setting [4]). Besides, the results for the “Convulsion Duration of each episode” value with mice [2] (30 mg/kg i.p.) and in the data set on mice [2] (60 mg/kg i.p.) were 4.86 ± 1.26 s and 16.14 ± 6.2 s, respectively. Also, the “Convulsion Episodes (n°)” value is 3.5 ± 0.5 n° with mice [2] (30 mg/kg i.p.); 2.0 ± 0.41 ^d n° and 2.0 ± 0.41 n° with mice [2] (60 mg/kg i.p.). Moreover, the “Convulsion Frequency % (n° of mice)” value in the data set with mice [2] (30 mg/kg i.p.) is recorded as 50% (3); with mice [2] (setting [3]) it was 50%; with mice [2] (60 mg/kg i.p.), 100% (6); in the data set with mice [2] (setting [4]), 100%. For the same molecule, the “Convulsion Latency of first episode” value worked out at 10.5 ± 1.5 s with mice [2] (30 mg/kg i.p.) and 8.25 ± 1.1 s in the data set on mice [2] (60 mg/kg i.p.). In addition, in the data set on mice [2] (60 mg/kg i.p.), the “Convulsion Duration of each episode (sec)” value is 16.14 ± 3.2 ^d sec.
